According to publication PMC4037565 (Organic & biomolecular chemistry, 2013):
Square brackets hold non-standard residues; d marks the D form. Peptide text beside a SMILES is read from it. Lys(N3) = [N-]=[N+]=NCCCC[C@H](N)C(=O)O; Orn = NCCC[C@H](N)C(=O)O; Pra = C#CC[C@H](N)C(=O)O

What was measured:
[1] = Solubility under NMR/CD buffer conditions; assay type: physicochemical; details: 50 mM KD2PO4, pH 7, 20°C
[2] = read-out: Kd / binding constant for ATP; parent peptide; cited from earlier work

| Compound | solubility (observation) [1] | Kd [2] [µM] |
| --- | --- | --- |
| C#CC[C@H](NC(=O)[C@H](CCCNC(=N)N)NC(C)=O)C(=O)N[C@H](C(=O)N[C@@H](CCCCN)C(=O)N[C@H](C(=O)N[C@@H](CC(N)=O)C(=O)NCC(=O)N[C@@H](CCCN)C(=O)N[C@@H](Cc1c[nH]c2ccccc12)C(=O)N[C@H](C(=O)N[C@@H](CCCCN=[N+]=[N-])C(=O)N[C@@H](CCC(N)=O)C(N)=O)[C@@H](C)CC)C(C)C)C(C)C [NHB-rev-U] (Ac-R[Pra]VKVNG[Orn]WI[Lys(N3)]Q-NH2) | not fully soluble and formed a gel-like substance |  |
| Ac-RWVKVNGOWIKQ-NH2 [WKWK] |  | 170 |
